Data reported in ChEMBL document CHEMBL1156180, “Synthesis and bioluminescence-inducing properties of autoinducer (S)-4,5-dihydroxypentane-2,3-dione and its enantiomer” (Bioorg Med Chem Lett, 2010).
Active and inactive are the calls of the source. The calls are words filed in the database; no cut-off is given here.

Target: Autoinducer 2-binding periplasmic protein LuxP (Vibrio harveyi) (UniProt P54300)
Test: Induction of Vibrio harveyi BB170 LuxP sensor protein-mediated quorum sensing activity at 0.5 to 5 ug/ml by reporter bioluminescence assay

Sequence of Autoinducer 2-binding periplasmic protein LuxP (Vibrio harveyi) (P54300 whole entry): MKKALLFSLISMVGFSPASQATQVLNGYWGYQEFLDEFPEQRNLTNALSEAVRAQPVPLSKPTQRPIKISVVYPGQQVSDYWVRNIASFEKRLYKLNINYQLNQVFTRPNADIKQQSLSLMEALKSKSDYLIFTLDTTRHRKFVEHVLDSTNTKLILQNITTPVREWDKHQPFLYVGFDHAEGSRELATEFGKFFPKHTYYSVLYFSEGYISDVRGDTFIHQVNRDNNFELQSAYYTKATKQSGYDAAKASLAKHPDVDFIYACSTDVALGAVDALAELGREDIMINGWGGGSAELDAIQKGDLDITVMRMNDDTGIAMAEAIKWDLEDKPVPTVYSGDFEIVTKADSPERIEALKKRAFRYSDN

Activity | Structure (SMILES)
Active | CC(=O)C(=O)[C@@H](O)CO
Active | CC(=O)C(=O)[C@H](O)CO
